Reference: patent publication EP4470536A1, “COMPOUND FOR USE IN TREATING FIBRODYSPLASIA OSSIFICANS PROGRESSIVA (FOP)” (Queen's University At Kingston, priority 2023, dated 2024)

Key:
ectopic bone formation = experiment: Surgical mouse model of heterotopic ossification (rhBMP2-soaked collagen disk), micro-CT; format: in vivo, CD-1 mouse; details: Day 14
Description: Heterotopic ossification (HO) driven by Bone Morphogenetic Protein (BMP) signaling has been used as a surrogate model for testing the effectiveness of drugs for treating Fibrodysplasia Ossificans Progressiva (FOP) (see, for example, Shimono K., et al. (2011). Nat Med 17, 454-460.). Collagen disks of 1mm in diameter were punched from a thin collagen foam matrix (Avitene™ Ultrafoam™ Collagen Hemostat product #1050050 lot #WBDP0038, from BD, Franklin Lakes, NJ, USA). Disks were impregnated with 1µg total of recombinant human BMP-2 (GenScript, Piscataway, NJ, USA, catalog #Z02913, lot #P50031712) on the day of surgery (5µl of 200ng/µL BMP-2, reconstituted in 20mM acetic acid solution). The rhBMP2-soaked collagen disk was surgically implanted into a small pocket made in the left gastrocnemius muscle of a 6-8 week-old male CD-1 mouse. Beginning on the day following surgery, mice were administered varying doses of compound 1 by oral gavage once daily (QD) or twice daily (every 12h; BID) for 13 days. Doses administered were: vehicle (Corn oil, QD (5M) and BID (3M) dosing or 3% DMSO in Corn oil (2M)), compound 1 18 mg/kg BID, 18 mg/kg QD, 6 mg/kg BID, 4.5 mg/kg BID, and 2 mg/kg BID (6M per group). Palovarotene high and low doses were used as comparators (1.76 mg/kg (4M) and 0.88 mg/kg QD (6M)). The palovarotene high and low doses were selected based on a study for palovarotene (Inubushi, T., et al. (2018). "Palovarotene Inhibits Osteochondroma Formation in a Mouse Model of Multiple Hereditary Exostoses." J Bone Miner Res 33(4): 658-666.), using oral treatment of mice. The inventors also verified the dose selection based on pharmacokinetic (PK) data generated in-house for palovarotene IP (intraperitoneal) and PO (oral) treatment by using the doses for IP treatment from Lees-Shepard, J. B., et al. (2018).
At the study endpoint (Day 14: 16-30 hours after final compound treatment) left hindlimbs were removed and submitted to micro-CT (micro-computed tomography) imaging. Using this preclinical surgical model, the amount of resulting ectopic bone formation after 14 days was visualized for each of the treatment groups (Figure 6). The highly enhancing regions seen within the gastrocnemius muscle corresponded to the amount of ectopic bone formation generated at the site of collagen disk implantation, following 14 days of vehicle or drug treatment.
The hindlimbs obtained in Example 6 above were submitted to micro-CT imaging. CT images were acquired using a VECTor^4CT pre-clinical scanner (MILabs B.V., Utrecht, Netherlands) equipped with a cone beam X-ray CT system. Scans were carried out with an acceleration voltage of 50 kVp and an X-ray tube current of 430 µA in accurate focus mode to obtain 3600 projections over a 360° scan. With a 40 ms exposure time per step, the total scan procedure took about 5 minutes with an estimated radiation dose of 3077 mGy. CT images were consequently processed using MILabs reconstruction software implementing a voxel size of 20 µm and a Hann projection filter of 25 µm to generate 3-dimensional CT images. For quantification, CT images were converted to DICOM® files using PMOD 3.9 software (PMOD Technologies Ltd., Zurich, Switzerland) for rendering using RadiAnt DICOM Viewer 4.2 software (Medixant, Poznań, Poland). The region-of-interest for all hindlimbs, reconstructed from DICOM files, was defined by outlining sites of ectopic ossification. Analysis of total ectopic bone volume was conducted via automated processes using the AnalyzePro software with the Bone Microarchitecture Analysis (BMA) add-on (AnalyzeDirect, Overland Park, Kansas). This software generates bone volume measurements from the defined area, as described by Bouxsein et al (2010). Journal of Bone and Mineral Research, 25(7), 1468-1486. Using this preclinical surgical model, the ability of compound 1 to inhibit HO (percentage from vehicle), as compared to palovarotene, was assessed and is shown in Figure 7 and in Table 1 below.

[1] = Mapping a therapeutic window (ED50 versus MTD); format: in vivo; details: QD, own data compiled with mined literature data
Source text: For both palovarotene and compound 1 efficacy and toxicity were correlated to the pharmacokinetic parameters AUC (area under the curve), Cmax (maximum concentration detected following compound administration), and duration above EC50/IC50.This illustrated that efficacy was best predicted by duration above the EC50/IC50 (effective concentration for 50% response (in the case of palovarotene), or for 50% inhibition (in the case of compound 1)), whereas toxicity was best predicted by Cmax. […] For palovarotene, efficacy data from Example 7 and toxicity data from Example 8 above were compiled with mined data from the following publications: • Lindborg et al (2018). "Cartilage-derived retinoic acid-sensitive protein (CD-RAP): A stage-specific biomarker of heterotopic endochondral ossification (HEO) in fibrodysplasia ossificans progressiva (FOP)." Bone 109: 153-157. • Chakkalakal, S. A., et al. (2016). "Palovarotene Inhibits Heterotopic Ossification and Maintains Limb Mobility and Growth in Mice With the Human ACVR1(R206H) Fibrodysplasia Ossificans Progressiva (FOP) Mutation." J Bone Miner Res 31(9): 1666-1675. • Inubushi, T., et al. (2018). "Palovarotene Inhibits Osteochondroma Formation in a Mouse Model of Multiple Hereditary Exostoses." J Bone Miner Res 33(4): 658-666. • Lees-Shepard, J. B., et al. (2018). […] "Potent inhibition of heterotopic ossification by nuclear retinoic acid receptor-gamma agonists." Nat Med 17(4): 454-460.

## CC1(C)CCC(C)(C)c2cc(Cn3cccn3)c(/C=C/c3ccc(C(=O)O)cc3)cc21 [Palovarotene, palovarotene, reference compound]
Ectopic bone formation; 0.88mg/kg
  Mean bone volume (mm^3): 1.985 mm^3
  percent change in HO volume from vehicle mean (%): +2.5%
Ectopic bone formation; 1.76mg/kg QD
  Mean bone volume (mm^3): 0.615 mm^3
  percent change in HO volume from vehicle mean (%): -68.2%
[1]; Mus musculus
  ED50: 0.3 mg/kg
[1]; mouse, in vivo
  MTD: 0.285 mg/kg
